Measurements from patent US11728018B2, “Subject-specific system and method for prevention of body adaptation for chronic treatment of disease” (OBERON SCIENCES ILAN LTD., priority 2017, dated 2023).
Values joined by “and” are separate entries in the source; they are usually repeats but may differ in a detail not shown here. Equal values may be shown once. Read-outs that look alike come from different tables or passages of the source.

Columns and labels:
C57Bl/6 mice given Con A [1] = format: in vivo
[2] = tested on: PBMC from naïve GD patients; test: PBMC from Gaucher patients incubated with ConA, IFNg ELISA; conditions: for IFNg ELISA, second value (Conc) / IFNg Conc: Colchicine 0.0625 pg/ml or dexamethasone 250 ug/well
[3] = tested on: C57 Bl mice receiving CONA; test: Daily low dose CONA in mice, regular vs irregular dexamethasone administration, serum ALT; format: in vivo; conditions: dexamethasone 50 mg/kg per day
Experimental: Mice: 24 C57 Bl mice, 12 weeks old, n=4/group
All animals received daily low dose CONA 300 μg/mouse daily for 10 days
Dexamethasone daily 50 mg/kg per day
ALT serum levels were monitored as follows

mice on a High fat diet = test: Low dose colchicine in high fat diet model of type 2 diabetes and fatty liver; format: in vivo; conditions: colchicine for two weeks, dose that had no anti-inflammatory effect
Experimental: • Give colchicine at the end of the experiment for two weeks to 4 mice who were on a High fat diet and developed diabetes and fatty liver disease. • Mice are treated with a dose that had no anti-inflammatory effect. • Test for glucose, ALT and cholesterol levels at the end of the two weeks.

C57Bl/6 mice given Con A [4] = test: Colchicine by gavage once six hours before ConA injection, serum ALT; format: in vivo; conditions: for ALT Average: N = 3
Experimental: Lack of an effect of low dose colchicine (0.5 mg, 3 times a day) as anti-inflammatory agent, while showing beneficial effect of low dose colchicine in diabetes and fatty liver disease. • Mice: C57Bl/6 mice, 11-12 weeks old • Duration: Mice will be administered once Colchicine six hours before ConA • Sacrifice: 14 hours after ConA injection.
Experiment Protocol: • Day 1: Administer all compounds by gavage 300 ul: saline or Colchicine • After 6 hours give Con A by injection IV 500 μg/mouse=20 mg/kg=[…] • Day 2: On the next day: sacrifice all mice • Take blood for serum ALT The results of this experiments are given in the table below and in FIG. 7.

[5] = in vivo; cited from earlier work
[6] = Patient 1, lymphocytes only 80.9
[7] = Patient 2, lymphocytes only 474.7

## Nc1c(Br)cc(Br)cc1CN[C@H]1CC[C@H](O)CC1 [Ambroxol]
C57Bl/6 mice given Con A [1]; Ambroxol 1.4 mg PO, alone or with Colchicine 0.01 mg/kg, control 6068
  ALT (IU): 4243 IU
C57Bl/6 mice given Con A [1]; Ambroxol arm, N = 3, control 6068
  ALT Average: 4243
C57Bl/6 mice given Con A [1]; single mice, Ambroxol arm, dilution 1/40
  ALT: 3683 and 4187 and 4859

## C[C@@H]1C[C@H]2[C@@H]3CCC4=CC(=O)C=C[C@]4(C)[C@@]3(F)[C@@H](O)C[C@]2(C)[C@@]1(O)C(=O)CO [Dexamethasone]
[2]; P1, lymphocytes only 80.9
  IFNg ELISA, second value (Conc): 33.29
[2]; P2, lymphocytes only 474.7
  IFNg ELISA, second value (Conc): 23.29
[2]; [6]
  IFNg Conc: 33.29
[2]; [7]
  IFNg Conc: 23.29
[3]; Day 2, group B, regular 8AM every day
  ALT serum level: 644.25
[3]; Day 2, group C, irregular time of administration
  ALT serum level: 747
[3]; Day 5, group B, regular 8AM every day
  ALT serum level: 978.75
[3]; Day 5, group C, irregular time of administration
  ALT serum level: 842.5
[3]; Day 10, group B, regular 8AM every day
  ALT serum level: 1210.25
[3]; Day 10, group C, irregular time of administration
  ALT serum level: 876.75

## COc1cc2c(c(OC)c1OC)-c1ccc(OC)c(=O)cc1[C@@H](NC(C)=O)CC2 [Colchicine]
C57Bl/6 mice given Con A [1]; low dose colchicine, summary in words
  adjuvant effect on the efficacy of drugs: can serve as a potent adjuvant to improve the efficacy of drugs
Mice on a High fat diet; control 190
  Glucose (mg %): 155 mg %
Mice on a High fat diet; control 278
  ALT (IU): 103 IU
Mice on a High fat diet; control 342
  Cholesterol (mg %): 100 mg %
C57Bl/6 mice given Con A [4]; Low dose, Colchicine 0.005 μg/kg by gavage
  ALT Average: 3218
C57Bl/6 mice given Con A [4]; Regular dose, Colchicine 0.05 μg/kg by gavage
  ALT Average: 17134
C57Bl/6 mice given Con A [4]; single mice, Regular dose, Colchicine 0.05 μg/kg by gavage, dilution 1/40
  ALT: 18946 and 19427 and 13029
[2]; P1, lymphocytes only 80.9
  IFNg ELISA, second value (Conc): 52.3
[2]; P2, lymphocytes only 474.7
  IFNg ELISA, second value (Conc): 47.57
[2]; [6]
  IFNg Conc: 52.3
[2]; [7]
  IFNg Conc: 47.57
[2]; summary in words
  effect on the inflammatory effect of PBMC from patients with Gaucher disease: profound effect on suppressing the inflammatory effect of PBMC
[5]
  part of dose excreted unchanged by the kidneys: 10-20%
  removal by hemodialysis: not removed by hemodialysis
